We go through six compounds from ChEMBL document CHEMBL1151184, “New diterpenes from Croton insularis” (J Nat Prod, 2004).

Test [1] concerns HeLa. Description: Cytotoxicity against human HeLa cells by MTT assay. It is filed as functional, cell-based. For orientation: Tetrazolium assays rely on reduction of a dye to a coloured formazan, in cell work by metabolically active cells.
For test [2], the system named is L1210. Description: Cytotoxicity against mouse L1210 cells by MTT assay. It is filed as functional, cell-based.

pIC50: −log10 of the molar value.

A word on the pIC50: it is the IC50 on a negative log10 scale, so that one unit is a factor of ten. A lower pIC50 goes with a large IC50. `CC1(C)C(=O)CC[C@@]2(C)[C@@H]3C[C@@H]4[C@@H]5C[C@@]3(CC[C@@H]12)C[C@@]45C`: the pIC50 in test [1] is 3.88; in test [2] it was 3.99.
Taken in the same sequence, the figures for `C[C@@H]1CC[C@]2(C)[C@H](CC[C@@H](O)[C@]2(C)O)[C@@]1(C)CC(=O)c1ccoc1` were below 3.70 and 4.01.
For `C[C@@]12CCC[C@@](C)(C(=O)O)[C@@H]1CC[C@@]13C[C@H]4[C@@H](C[C@H]12)[C@]4(C)C3`, in that order: 4.00 and 4.00.
On to `CC1(C)[C@@H](O)CC[C@@]2(C)[C@@H]3C[C@@H]4[C@@H]5C[C@@]3(CC[C@@H]12)C[C@@]45C`, for which the pIC50 in test [1] is below 3.70; in test [2] it was 3.88.
Take `C[C@]1(CO)[C@@H]2CC[C@@]34C[C@H]5[C@@H](C[C@H]3[C@]2(C)CC[C@H]1O)[C@]5(C)C4`: the pIC50 in test [1] was 4.01; in test [2] it was 4.04.
Taken in the same sequence, the figures for `C[C@@H]1CC[C@]2(C)[C@H](CC[C@@H](O)[C@]2(C)O)[C@@]12C=C(c1ccoc1)OC2` [CROTINSULARIN] were 3.83 and 3.89.
